Assay results taken from US9328138B2 (priority 2011, dated 2016).

Legend:
[1] = target: T1, HCV genotype 1b (BK) NS3 modified enzyme with a R155K mutation (Hepatitis C virus genotype 1b, UniProt P26663, R1181K); test: HCV NS3 protease time-resolved fluorescence (TRF) assay, genotype 1b R155K; format: biochemical; details: Ki 1b R155K, genotype 1b (BK) NS3 R155K; single value
T1 construct: HCV genotype 1b (BK) NS3 modified enzyme
Summary of the method: (§1)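 NS3/NS4A protease was pre-incubated 10 min with inhibitor in 50 mM HEPES pH 7.5, 150 mM NaCl, 15% glycerol, 0.15% Triton X-100, 10 mM DTT, 0.1% PEG 8000. TRF peptide substrate (25 nM final) was hydrolysed for 6 h at room temperature. IC50 came from four-parameter fits.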

[2] = target: HCV NS3 protease genotype 3a (3A-1) (Hepatitis C virus genotype 3a, UniProt Q81258); test: HCV NS3 protease time-resolved fluorescence (TRF) assay, genotype 3a; format: biochemical; details: Ki 3a
Summary of the method: as §1

Compound | Ki [1] [pM] | Ki [2] [pM]
C=C[C@@H]1C[C@]1(NC(=O)[C@@H]1C[C@@H]2CN1C(=O)[C@H](C(C)(C)C)NC(=O)O[C@@H]1C[C@H]1CCCCCc1c(nc3ccccc3c1OCCCNC1CCCc3ccccc31)O2)C(=O)NS(=O)(=O)C1(C)CC1 (stereo partly drawn) [Example 204, (1aR,5S,8S,10R,22aR)-5-tert-butyl-N-[(1R,2S)-2-ethenyl-1-{[(1-methylcyclopropyl)sulfonyl]carbamoyl}cyclopropyl]-3,6-dioxo-17-[3-(1,2,3,4-tetrahydronaphthalen-1-ylamino)propoxy]-1,1a,3,4,5,6,9,10,18,19, 20,21,22,22a-tetradecahydro-8H-7,10-methanocyclopropa[18,19][1,10,3,6] dioxadiazacyclononadecino[11,12-b] quinoline-8-carboxamide] | 150 | 2400
C=C[C@@H]1C[C@]1(NC(=O)[C@@H]1C[C@@H]2CN1C(=O)[C@H](C(C)(C)C)NC(=O)O[C@@H]1C[C@H]1CCCCCc1c(nc3ccccc3c1OCCCN1CCNC(C(F)(F)F)C1)O2)C(=O)NS(=O)(=O)C1(C)CC1 (stereo partly drawn) [Example 205, (1aR,5S,8S,10R,22aR)-5-tert-butyl-N-[(1R,2S)-2-ethenyl-1-{[(1-methylcyclopropyl)sulfonyl]carbamoyl}cylcopropyl]-3,6-dioxo-17-{3-[3-(trifluoromethyl)piperazin-1-yl]propoxy}-1,1a,3,4,5,6,9,10,18, 19,20,21,22,22a-tetradecahydro-8H-7,10-methanocyclopropa[18,19][1,10,3,6] dioxadiazacyclononadecino[11,12-b] quinoline-8-carboxamide] | 190 | 1900
C=C[C@@H]1C[C@]1(NC(=O)[C@@H]1C[C@@H]2CN1C(=O)[C@H](C(C)(C)C)NC(=O)O[C@@H]1C[C@H]1CCCCCc1c(nc3ccccc3c1OCCCN1CC(F)(F)C1)O2)C(=O)NS(=O)(=O)C1(C)CC1 [Example 206, (1aR,5S,8S,10R,22aR)-5-tert-butyl-17-[3-(3,3-difluoroazetidin-1-yl)propoxy]-N-[(1R,2S)-2-ethenyl-1-{[(1-methylcyclopropyl)sulfonyl]carbamoyl}cyclopropyl]-3,6-dioxo-1,1a,3,4,5,7,9,10,18,19,20,21,22,22a-tetradecahydro-8H-7,10-methanocyclopropa[18,19][1,10,3,6] dioxadiazacyclononadecino[11,12-b] quinoline-8-carboxamide] | 200 | 2600
C=C[C@@H]1C[C@]1(NC(=O)[C@@H]1C[C@@H]2CN1C(=O)[C@H](C(C)(C)C)NC(=O)O[C@@H]1C[C@H]1CCCCCc1c(nc3ccccc3c1OCCCN1CCC3(CCCC3)C1)O2)C(=O)NS(=O)(=O)C1(C)CC1 [Example 207, (1aR,5S,8S,10R,22aR)-17-[3-(2-azaspiro[4.4]non-2-yl)propoxy]-5-tert-butyl-N-[(1R,2S)-2-ethenyl-1-{[(1-methylcylcopropyl)sulfonyl]carbamoyl}cyclopropyl]-3,6-dioxo-1,1a,3,4,5,7,9, 10,18,19,20,21,22,22a-tetradecahydro-8H-7,10-methanocyclopropa[18,19][1,10,3,6] dioxadiazacyclononadecino[11,12-b] quinoline-8-carboxamide] | 110 | 1300
C=C[C@@H]1C[C@]1(NC(=O)[C@@H]1C[C@@H]2CN1C(=O)[C@H](C(C)(C)C)NC(=O)O[C@@H]1C[C@H]1CCCCCc1c(nc3ccccc3c1OCCCN1CCC[C@@H]1C(N)=O)O2)C(=O)NS(=O)(=O)C1(C)CC1 [Example 208, (1aR,5S,8S,10R,22aR)-5-tert-butyl-17-{3-[(2R)-2-carbamoylpyrrolidin-1-yl]propoxy}-N-[(1R,2S)-2-ethenyl-1-{[(1-methylcyclopropyl)sulfonyl]carbamoyl}cyclopropyl]-3,6-dioxo-1,1a,3,4,5,6,9,10,18,19,20,21,22,22a-tetradecahydro-8H-7,10-methanocyclopropa[18,19][1,10,3,6] dioxadiazacyclononadecino[11,12-b] quinoline-8-carboxamide] | 110 | 1000
C=C[C@@H]1C[C@]1(NC(=O)[C@@H]1C[C@@H]2CN1C(=O)[C@H](C(C)(C)C)NC(=O)O[C@@H]1C[C@H]1CCCCCc1c(nc3ccccc3c1OCCCN1CCC(C)(O)C1)O2)C(=O)NS(=O)(=O)C1(C)CC1 (stereo partly drawn) [Example 209, (1aR,5S,8S,10R,22aR)-5-tert-butyl-N-[(1R,2S)-2-ethenyl-1-{[(1-methylcyclopropyl)sulfonyl]carbamoyl}cyclopropyl]-17-[3-(3-hydroxy-3-methylpyrrolidin-1-yl)propoxy]-3,6-dioxo-1,1a,3,4,5,6,9,10,18,19,20,21,22,22a-tetradeca hydro-8H-7,10-methanocyclopropa[18,19][1,10,3,6] dioxadiazacyclononadecino[11,12-b] quinoline-8-carboxamide] | 56 | 550
C=C[C@@H]1C[C@]1(NC(=O)[C@@H]1C[C@@H]2CN1C(=O)[C@H](C(C)(C)C)NC(=O)O[C@@H]1C[C@H]1CCCCCc1c(nc3ccccc3c1OC1CCN(C)CC1)O2)C(=O)NS(=O)(=O)C1(C)CC1 [Example 210, (1aR,5S,8S,10R,22aR)-5-tert-butyl-N-[(1R,2S)-2-ethenyl-1-{[(1-methylcyclopropyl)sulfonyl]carbamoyl}cyclopropyl]-17-[(1-methylpiperidin-4-yl)oxy]-3,6-dioxo-1,1a,3,4,5,6,9,10,18,19,20,21,22,22a-tetradecahydro-8H-7,10-methanocyclopropa[18,19][1,10,3,6]dioxadiazacyclononadecino[11,12-b]quinoline-8-carboxamide] | 46 | 290
C=C[C@@H]1C[C@]1(NC(=O)[C@@H]1C[C@@H]2CN1C(=O)[C@H](C1CCCCC1)NC(=O)O[C@@H]1C[C@H]1CCCCCc1c(nc3ccccc3c1OC1CCN(C)CC1)O2)C(=O)NS(=O)(=O)C1(C)CC1 [Example 211, (1aR,5S,8S,10R,22aR)-5-cyclohexyl-N-[(1R,2S)-2-ethenyl-1-{[(1-methylcyclopropyl)sulfonyl]carbamoyl}cyclopropyl]-17-[(1-methylpiperidin-4-yl)oxy]-3,6-dioxo-1,1a,3,4,5,6,9,10,18,19,20,21,22,22a-tetradecahydro-8H-7,10-methanocyclopropa[18,19][1,10,3,6] dioxadiazacyclononadecino[11,12-b]quinoline-8-carboxamide] | 33 | 300
C=C[C@@H]1C[C@]1(NC(=O)[C@@H]1C[C@@H]2CN1C(=O)[C@H](C(C)(C)C)NC(=O)O[C@@H]1C[C@H]1CCCCCc1c(nc3c(F)cccc3c1OCCN1CCC1)O2)C(=O)NS(=O)(=O)C1(C)CC1 [Example 212, (1aR,5S,8S,10R,22aR)-17-[2-(azetidin-1-yl)ethoxy]-5-tent-butyl-N-[(1R,2S)-2-ethenyl-1-{[(1-methylcyclopropyl)sulfonyl]carbamoyl}cyclopropyl]-13-fluoro-3,6-dioxo-1,1a,3,4,5,6,9,10,18,19,20,21,22,22a-tetradecahydro-8H-7,10-methanocyclopropa[18,19][1,10,3,6] dioxadiazacyclononadecino[11,12-b]quinoline-8-carboxamide] | 220 | 1900
C=C[C@@H]1C[C@]1(NC(=O)[C@@H]1C[C@@H]2CN1C(=O)[C@H](C(C)(C)C)NC(=O)O[C@@H]1C[C@H]1CCCCCc1c(nc3c(F)cccc3c1OCCN1CCCCC1)O2)C(=O)NS(=O)(=O)C1(C)CC1 [Example 213, (1aR,5S,8S,10R,22aR)-5-tent-butyl-N-[(1R,2S)-2-ethenyl-1-{[(1-methylcyclopropyl)sulfonyl]carbamoyl}cyclopropyl]-13-fluoro-3,6-dioxo-17-[2-(piperidin-1-yl)ethoxy]-1,1a,3,4,5,6,9,10,18,19,20,21,22,22a-tetradecahydro-8H-7,10-methanocyclopropa[18,19][1,10,3,6] dioxadiazacyclononadecino[11,12-b]quinoline-8-carboxamide] | 360 | 3800
C=C[C@@H]1C[C@]1(NC(=O)[C@@H]1C[C@@H]2CN1C(=O)[C@H](C(C)(C)C)NC(=O)O[C@@H]1C[C@H]1CCCCCc1c(nc3c(F)cccc3c1OCCn1ccnc1)O2)C(=O)NS(=O)(=O)C1(C)CC1 [Example 214, (1aR,5S,8S,10R,22aR)-5-tert-butyl-N-[(1R,2S)-2-ethenyl-1-{[(1-methylcyclopropyl)sulfonyl]carbamoyl}cyclopropyl]-13-fluoro-17-[2-(1H-imidazol-1-yl)ethoxy]-3,6-dioxo-1,1a,3,4,5,6,9,10,18,19,20,21,22,22a-tetradecahydro-8H-7,10-methanocyclopropa[18,19][1,10,3,6] dioxadiazacyclononadecino[11,12-b]quinoline-8-carboxamide] | 21 | 1200
C=C[C@@H]1C[C@]1(NC(=O)[C@@H]1C[C@@H]2CN1C(=O)[C@H](C1CCCCC1)NC(=O)O[C@@H]1C[C@H]1CCCCCc1c(nc3c(OC)cccc3c1OCC1CN(C(=O)OC(C)(C)C)C1)O2)C(=O)NS(=O)(=O)C1(C)CC1 [Example 215, tent-butyl 3-[({(1aS,5R,8S,10R,22aR)-5-cyclohexyl-8-[(2-ethenyl-1-{[(1-methylcyclopropyl)sulfonyl]carbamoyl}cyclopropyl)carbamoyl]-13-methoxy-3,6-dioxo-1,1a,3,4,5,6,9,10,18,19,20,21,22,22a-tetradecahydro-8H-7,10-methanocyclopropa[18,19][1,10,3,6]dioxadiazacyclononadecino[11,12-b]quinolin-1'7-yl}oxy)methyl]azetidine-1-carboxylate] | 1700 | 55000
